# Measured values from PubChem BioAssay AID1745844 (Carcinogenic Potency Database (CPDB), 2022).
# Active and inactive are the calls of the source. How the calls were made is not given here.
# Tested on: rodent lifetime carcinogenesis bioassay, tumor incidence TD50
# Assay: carcinogenic potency in animals, long-term in vivo studies, CPDB compilation (AID 1745844)
compound,measurement,setting,value
[Cl][Hg][Cl],TD50,"mouse, strain B6C3F1, females, by gavage, site: any site (literature study), lesion: several types, types named in the paper, dosed 103 weeks, study length 104 weeks",5.83 mg/kg/day (inactive)
same,TD50,"mouse, strain B6C3F1, females, by gavage, site: lung, lesion: alveolar/bronchiolar adenoma + alveolar/bronchiolar carcinoma, dosed 103 weeks, study length 104 weeks",40.8 mg/kg/day
same,TD50,"mouse, strain B6C3F1, males, by gavage, site: kidney, lesion: tubular-cell adenocarcinoma, dosed 103 weeks, study length 104 weeks",240 mg/kg/day
same,TD50,"mouse, strain B6C3F1, males, by gavage, site: kidney, lesion: tubule adenoma + tubular-cell adenocarcinoma, dosed 103 weeks, study length 104 weeks",81.6 mg/kg/day
same,TD50,"mouse, strain B6C3F1, males, by gavage, site: kidney, lesion: tubule adenoma, dosed 103 weeks, study length 104 weeks",125 mg/kg/day
same,TD50,"mouse, strain Charles River CD1, females, in drinking water, site: all sites, lesion: lymphoma and leukemia, combined, dosed 118 weeks, study length 118 weeks",3.58 mg/kg/day (inactive)
same,TD50,"mouse, strain Charles River CD1, females, in drinking water, site: any site (literature study), lesion: malignant tumor, dosed 118 weeks, study length 118 weeks",5.55 mg/kg/day (inactive)
same,TD50,"mouse, strain Charles River CD1, females, in drinking water, site: any site (literature study), lesion: several types, types named in the paper, dosed 118 weeks, study length 118 weeks",2.42 mg/kg/day (inactive)
same,carcinogen call,"mouse, strain Charles River CD1, females, in drinking water, site: lung, lesion: one or several types, types not named, dosed 118 weeks, study length 118 weeks",negative (inactive)
same,carcinogen call,"mouse, strain Charles River CD1, males, in drinking water, site: any site (literature study), lesion: malignant tumor, dosed 119 weeks, study length 119 weeks",negative (inactive)
same,TD50,"mouse, strain Charles River CD1, males, in drinking water, site: any site (literature study), lesion: several types, types named in the paper, dosed 119 weeks, study length 119 weeks",3.2 mg/kg/day (inactive)
same,TD50,"mouse, strain Charles River CD1, males, in drinking water, site: lung, lesion: one or several types, types not named, dosed 119 weeks, study length 119 weeks",11.2 mg/kg/day (inactive)
same,TD50,"rat, strain Fischer 344, females, by gavage, site: forestomach, lesion: squamous-cell papilloma, dosed 103 weeks, study length 104 weeks",51.8 mg/kg/day
same,TD50,"rat, strain Fischer 344, females, by gavage, site: liver, lesion: hepatocellular adenoma + hepatocellular carcinoma + neoplastic nodule, dosed 103 weeks, study length 104 weeks",105 mg/kg/day
same,TD50,"rat, strain Fischer 344, males, by gavage, site: adrenal medulla, lesion: pheochromocytoma benign, bilateral + pheochromocytoma, benign, dosed 103 weeks, study length 104 weeks",1.56 mg/kg/day
same,TD50,"rat, strain Fischer 344, males, by gavage, site: adrenal medulla, lesion: pheochromocytoma benign, bilateral + pheochromocytoma, complex + pheochromocytoma, malignant + pheochromocytoma malignant, bil, dosed 103 weeks, study length 104 weeks",1.6 mg/kg/day
same,TD50,"rat, strain Fischer 344, males, by gavage, site: any site (literature study), lesion: several types, types named in the paper, dosed 103 weeks, study length 104 weeks",1.04 mg/kg/day
same,TD50,"rat, strain Fischer 344, males, by gavage, site: forestomach, lesion: squamous-cell papilloma, dosed 103 weeks, study length 104 weeks",3.12 mg/kg/day
same,TD50,"rat, strain Fischer 344, males, by gavage, site: liver, lesion: hepatocellular adenoma + hepatocellular carcinoma + neoplastic nodule, dosed 103 weeks, study length 104 weeks",10.3 mg/kg/day
same,TD50,"rat, strain Fischer 344, males, by gavage, site: testis, lesion: interstitial-cell adenoma, bilateral + interstitial-cell adenoma, dosed 103 weeks, study length 104 weeks",0.825 mg/kg/day
same,TD50,"rat, strain Fischer 344, males, by gavage, site: thyroid gland, lesion: follicular-cell adenoma + follicular-cell carcinoma, dosed 103 weeks, study length 104 weeks",5.25 mg/kg/day
same,TD50,"rat, strain Fischer 344, males, by gavage, site: thyroid gland, lesion: follicular-cell adenoma, dosed 103 weeks, study length 104 weeks",5.98 mg/kg/day
same,TD50,"rat, strain Fischer 344, males, by gavage, site: thyroid gland, lesion: follicular-cell carcinoma, dosed 103 weeks, study length 104 weeks",7.32 mg/kg/day
CCCCCCCCCCCCCCCC(=O)CC(=O)CCCCCCCCCCCCCCC,carcinogen call,"rat, strain F344/DuCrj, females, in feed, site: colon, lesion: one or several types, types not named, dosed 54 weeks, study length 54 weeks",negative (inactive)
same,carcinogen call,"rat, strain F344/DuCrj, females, in feed, site: mammary gland, lesion: one or several types, types not named, dosed 54 weeks, study length 54 weeks",negative (inactive)
NC(=S)C(N)=S,TD50,"rat, strain Charles River CD (Sprague-Dawley), females, in feed, site: mammary gland, lesion: one or several types, types not named, dosed 78 weeks, study length 104 weeks",12.6 mg/kg/day
COc1ccc([C@@H]2CC(=O)c3c(O)cc(O[C@@H]4O[C@H](CO[C@@H]5O[C@@H](C)[C@H](O)[C@@H](O)[C@H]5O)[C@@H](O)[C@H](O)[C@H]4O)cc3O2)cc1OC,carcinogen call,"mouse, strain B6C3F1, females, in feed, site: liver, lesion: hemangioma, dosed 96 weeks, study length 104 weeks",negative (inactive)
same,TD50,"mouse, strain B6C3F1, females, in feed, site: liver, lesion: hemangiosarcoma, dosed 96 weeks, study length 104 weeks",887000 mg/kg/day (inactive)
same,TD50,"mouse, strain B6C3F1, females, in feed, site: liver, lesion: hepatocellular carcinoma, dosed 96 weeks, study length 104 weeks",194000 mg/kg/day (inactive)
same,TD50,"mouse, strain B6C3F1, females, in feed, site: liver, lesion: hyperplastic nodule, dosed 96 weeks, study length 104 weeks",379000 mg/kg/day (inactive)
same,carcinogen call,"mouse, strain B6C3F1, females, in feed, site: lung, lesion: adenoma, dosed 96 weeks, study length 104 weeks",negative (inactive)
same,carcinogen call,"mouse, strain B6C3F1, males, in feed, site: liver, lesion: hemangioma, dosed 96 weeks, study length 104 weeks",negative (inactive)
same,TD50,"mouse, strain B6C3F1, males, in feed, site: liver, lesion: hepatocellular carcinoma, dosed 96 weeks, study length 104 weeks",146000 mg/kg/day (inactive)
same,TD50,"mouse, strain B6C3F1, males, in feed, site: liver, lesion: hyperplastic nodule, dosed 96 weeks, study length 104 weeks",416000 mg/kg/day (inactive)
same,carcinogen call,"mouse, strain B6C3F1, males, in feed, site: lung, lesion: adenocarcinoma, dosed 96 weeks, study length 104 weeks",negative (inactive)
same,carcinogen call,"mouse, strain B6C3F1, males, in feed, site: lung, lesion: adenoma, dosed 96 weeks, study length 104 weeks",negative (inactive)
CN(CCc1ccccc1)N=O,TD50,"rat, strain Fischer 344, males, in drinking water, site: esophagus, lesion: several types, types named in the paper, dosed 32 weeks, study length 127 weeks",0.0401 mg/kg/day
same,TD50,"rat, strain Fischer 344, males, in drinking water, site: esophagus, lesion: several types, types named in the paper, dosed 104 weeks, study length 127 weeks",0.0422 mg/kg/day
same,TD50,"rat, strain Fischer 344, males, in drinking water, site: forestomach, lesion: basal-cell carcinoma, dosed 32 weeks, study length 127 weeks",2.57 mg/kg/day
same,TD50,"rat, strain Fischer 344, males, in drinking water, site: forestomach, lesion: basal-cell carcinoma, dosed 104 weeks, study length 127 weeks",0.0422 mg/kg/day
same,TD50,"rat, strain Fischer 344, males, in drinking water, site: forestomach, lesion: basal-cell papilloma, dosed 32 weeks, study length 127 weeks",2.21 mg/kg/day
same,TD50,"rat, strain Fischer 344, males, in drinking water, site: liver, lesion: hyperplastic nodule, dosed 104 weeks, study length 127 weeks",0.184 mg/kg/day
same,carcinogen call,"rat, strain Fischer 344, males, in drinking water, site: tongue, lesion: basal-cell carcinoma, dosed 32 weeks, study length 127 weeks",positive
same,TD50,"rat, strain Fischer 344, males, in drinking water, site: tongue, lesion: basal-cell carcinoma, dosed 104 weeks, study length 127 weeks",0.184 mg/kg/day
same,TD50,"rat, strain Fischer 344, males, in drinking water, site: upper gastrointestinal tract, lesion: several types, types named in the paper, dosed 32 weeks, study length 127 weeks",0.00788 mg/kg/day
same,TD50,"rat, strain Fischer 344, males, in drinking water, site: upper gastrointestinal tract, lesion: several types, types named in the paper, dosed 104 weeks, study length 127 weeks",0.0136 mg/kg/day
COS(C)(=O)=O,TD50,"mouse, strain RF, males, in drinking water, site: liver, lesion: one or several types, types not named, dosed 104 weeks, study length 104 weeks",3980 mg/kg/day (inactive)
same,TD50,"mouse, strain RF, males, in drinking water, site: lung, lesion: adenoma, dosed 104 weeks, study length 104 weeks",31.8 mg/kg/day
same,TD50,"mouse, strain RF, males, in drinking water, site: thymus gland, lesion: lymphoma, dosed 104 weeks, study length 104 weeks",185 mg/kg/day
NC(=S)NNC(N)=S,TD50,"mouse, strain B6C3F1, females, in feed, site: any site (literature study), lesion: several types, types named in the paper, dosed 94 weeks, study length 94 weeks",4350 mg/kg/day
same,TD50,"mouse, strain B6C3F1, females, in feed, site: liver, lesion: hepatocellular adenoma + hepatocellular carcinoma + neoplastic nodule, dosed 94 weeks, study length 94 weeks",5670 mg/kg/day
same,TD50,"mouse, strain B6C3F1, females, in feed, site: liver, lesion: hepatocellular carcinoma, dosed 94 weeks, study length 94 weeks",5670 mg/kg/day
same,TD50,"mouse, strain B6C3F1, females, in feed, site: lung, lesion: alveolar/bronchiolar adenoma + alveolar/bronchiolar carcinoma, dosed 94 weeks, study length 94 weeks",22900 mg/kg/day
same,TD50,"mouse, strain B6C3F1, males, in feed, site: any site (literature study), lesion: several types, types named in the paper, dosed 94 weeks, study length 94 weeks",20000 mg/kg/day (inactive)
same,TD50,"rat, strain Fischer 344, females, in feed, site: any site (literature study), lesion: several types, types named in the paper, dosed 109 weeks, study length 109 weeks",842 mg/kg/day (inactive)
same,TD50,"rat, strain Fischer 344, females, in feed, site: liver, lesion: hepatocellular adenoma + hepatocellular carcinoma + neoplastic nodule, dosed 109 weeks, study length 109 weeks",131000 mg/kg/day
same,TD50,"rat, strain Fischer 344, males, in feed, site: any site (literature study), lesion: several types, types named in the paper, dosed 109 weeks, study length 109 weeks",960 mg/kg/day
same,TD50,"rat, strain Fischer 344, males, in feed, site: liver, lesion: hepatocellular adenoma + hepatocellular carcinoma + neoplastic nodule, dosed 109 weeks, study length 109 weeks",5010 mg/kg/day
same,TD50,"rat, strain Fischer 344, males, in feed, site: pituitary gland, lesion: carcinoma, NOS, dosed 109 weeks, study length 109 weeks",2620 mg/kg/day (inactive)
O=C[C@H](NC(=O)N(CCCl)N=O)[C@@H](O)[C@H](O)[C@H](O)CO,TD50,"rat, strain Sprague-Dawley, females, i.p., site: any site (literature study), lesion: malignant tumor, dosed 88 weeks, study length 114 weeks",0.108 mg/kg/day
same,TD50,"rat, strain Sprague-Dawley, females, i.p., site: peritoneal cavity, lesion: several types, types named in the paper, dosed 88 weeks, study length 114 weeks",0.0844 mg/kg/day
same,TD50,"rat, strain Sprague-Dawley, males, i.p., site: any site (literature study), lesion: malignant tumor, dosed 77 weeks, study length 100 weeks",0.0521 mg/kg/day
same,TD50,"rat, strain Sprague-Dawley, males, i.p., site: peritoneal cavity, lesion: several types, types named in the paper, dosed 77 weeks, study length 100 weeks",0.0241 mg/kg/day
Cc1cc(O)cc(C)c1N(C)C,TD50,"mouse, strain B6AKF1, females, oral dosing, site: any site (literature study), lesion: several types, types named in the paper, dosed 76 weeks, study length 76 weeks",220 mg/kg/day (inactive)
same,carcinogen call,"mouse, strain B6AKF1, females, oral dosing, site: liver, lesion: hepatoma, dosed 76 weeks, study length 76 weeks",negative (inactive)
same,carcinogen call,"mouse, strain B6AKF1, females, oral dosing, site: lung, lesion: adenoma, dosed 76 weeks, study length 76 weeks",negative (inactive)
same,TD50,"mouse, strain B6AKF1, males, oral dosing, site: any site (literature study), lesion: several types, types named in the paper, dosed 76 weeks, study length 76 weeks",1190 mg/kg/day (inactive)
same,TD50,"mouse, strain B6AKF1, males, oral dosing, site: liver, lesion: hepatoma, dosed 76 weeks, study length 76 weeks",207 mg/kg/day (inactive)
same,carcinogen call,"mouse, strain B6AKF1, males, oral dosing, site: lung, lesion: adenoma, dosed 76 weeks, study length 76 weeks",negative (inactive)
same,TD50,"mouse, strain B6C3F1, females, oral dosing, site: any site (literature study), lesion: several types, types named in the paper, dosed 76 weeks, study length 76 weeks",265 mg/kg/day (inactive)
same,carcinogen call,"mouse, strain B6C3F1, females, oral dosing, site: liver, lesion: hepatoma, dosed 76 weeks, study length 76 weeks",negative (inactive)
same,TD50,"mouse, strain B6C3F1, females, oral dosing, site: lung, lesion: adenoma, dosed 76 weeks, study length 76 weeks",265 mg/kg/day (inactive)
same,TD50,"mouse, strain B6C3F1, males, oral dosing, site: any site (literature study), lesion: several types, types named in the paper, dosed 76 weeks, study length 76 weeks",34.8 mg/kg/day (inactive)
same,TD50,"mouse, strain B6C3F1, males, oral dosing, site: liver, lesion: hepatoma, dosed 76 weeks, study length 76 weeks",247 mg/kg/day (inactive)
same,TD50,"mouse, strain B6C3F1, males, oral dosing, site: lung, lesion: adenoma, dosed 76 weeks, study length 76 weeks",56.1 mg/kg/day (inactive)
